For test [1], the target named is T307A nvTRPM2 (Nematostella vectensis, UniProt A7T1N0, T307A). Nature of the test: Inside-out patch-clamp, T307A nvTRPM2. The test is classed as cell-based. For orientation: In patch-clamp work, channel activity is measured electrically.
Test [2] concerns the target Y264A nvTRPM2 (Nematostella vectensis, UniProt A7T1N0, Y264A). In words: Inside-out patch-clamp, Y264A nvTRPM2. Type of test: cell-based.
Test [3] addresses nvTRPM2 (Nematostella vectensis, UniProt A7T1N0). Nature of the test: Inside-out patch-clamp, full-length. The test is classed as cell-based. The following applies: for Mode of action on nvTRPM2: compared with ADPR; for Maximal fractional activation: relative to current in 100 µM ADPR.
The target in test [4] is R271A nvTRPM2 (Nematostella vectensis, UniProt A7T1N0, R271A). Nature of the test: Inside-out patch-clamp, R271A nvTRPM2. The test is classed as cell-based.
Sequence of R271A nvTRPM2 (A7T1N0 whole entry R271A): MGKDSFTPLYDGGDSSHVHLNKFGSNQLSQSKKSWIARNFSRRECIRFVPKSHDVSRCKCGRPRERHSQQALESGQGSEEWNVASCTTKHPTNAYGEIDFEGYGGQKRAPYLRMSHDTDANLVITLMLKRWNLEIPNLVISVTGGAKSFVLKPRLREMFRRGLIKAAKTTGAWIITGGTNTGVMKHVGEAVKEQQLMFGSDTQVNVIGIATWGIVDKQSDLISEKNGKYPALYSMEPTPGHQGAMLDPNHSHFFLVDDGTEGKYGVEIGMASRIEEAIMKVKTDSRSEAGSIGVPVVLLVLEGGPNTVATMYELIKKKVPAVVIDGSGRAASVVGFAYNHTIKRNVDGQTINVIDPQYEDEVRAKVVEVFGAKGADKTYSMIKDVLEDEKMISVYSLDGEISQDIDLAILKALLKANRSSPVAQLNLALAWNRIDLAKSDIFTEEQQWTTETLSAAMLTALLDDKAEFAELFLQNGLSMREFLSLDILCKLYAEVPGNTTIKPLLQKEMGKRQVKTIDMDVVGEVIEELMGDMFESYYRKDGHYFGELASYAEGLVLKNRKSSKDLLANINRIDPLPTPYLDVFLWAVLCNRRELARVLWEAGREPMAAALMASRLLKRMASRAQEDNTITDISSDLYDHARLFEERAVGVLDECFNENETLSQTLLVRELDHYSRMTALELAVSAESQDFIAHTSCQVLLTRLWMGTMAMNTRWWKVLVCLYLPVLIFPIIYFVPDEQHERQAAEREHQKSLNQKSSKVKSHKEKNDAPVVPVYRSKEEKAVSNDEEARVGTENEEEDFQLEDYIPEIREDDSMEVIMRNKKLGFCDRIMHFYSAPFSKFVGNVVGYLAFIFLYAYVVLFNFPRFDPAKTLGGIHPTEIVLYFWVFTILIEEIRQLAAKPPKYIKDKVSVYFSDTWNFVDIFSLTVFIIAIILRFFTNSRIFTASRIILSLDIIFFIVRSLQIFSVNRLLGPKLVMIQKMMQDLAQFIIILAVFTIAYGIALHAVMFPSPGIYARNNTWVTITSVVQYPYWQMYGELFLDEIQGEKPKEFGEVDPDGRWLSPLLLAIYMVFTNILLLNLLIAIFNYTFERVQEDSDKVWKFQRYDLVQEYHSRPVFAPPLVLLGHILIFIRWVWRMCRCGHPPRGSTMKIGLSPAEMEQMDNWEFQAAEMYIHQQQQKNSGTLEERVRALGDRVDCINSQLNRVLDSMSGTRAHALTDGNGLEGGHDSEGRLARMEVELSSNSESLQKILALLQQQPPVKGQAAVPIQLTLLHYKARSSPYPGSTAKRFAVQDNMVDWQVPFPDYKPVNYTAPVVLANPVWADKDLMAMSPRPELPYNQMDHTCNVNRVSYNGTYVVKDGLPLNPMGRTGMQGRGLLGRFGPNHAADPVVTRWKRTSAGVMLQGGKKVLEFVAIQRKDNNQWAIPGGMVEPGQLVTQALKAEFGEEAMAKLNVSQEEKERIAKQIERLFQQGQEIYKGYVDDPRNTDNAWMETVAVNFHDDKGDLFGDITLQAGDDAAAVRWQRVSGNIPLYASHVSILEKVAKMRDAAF
Test [5] deals with R329A nvTRPM2 (Nematostella vectensis, UniProt A7T1N0, R329A). Nature of the test: Inside-out patch-clamp, R329A nvTRPM2. Type of test: cell-based.
Sequence of R329A nvTRPM2 (A7T1N0 whole entry R329A): as the sequence (A7T1N0 whole entry R271A) above, with A271R, R329A counted along it
The target in test [6] is T143A nvTRPM2 (Nematostella vectensis, UniProt A7T1N0, T143A). In words: Inside-out patch-clamp, T143A nvTRPM2. Type of test: cell-based.
Sequence of T143A nvTRPM2 (A7T1N0 whole entry T143A): as the sequence (A7T1N0 whole entry R271A) above, with T143A, A271R counted along it
Test [7] has as its system hsTRPM2. The settings on record: cited from earlier work.
Test [8] concerns the target T179A nvTRPM2 (Nematostella vectensis, UniProt A7T1N0, T179A). In words: Inside-out patch-clamp, T179A nvTRPM2. Type of test: cell-based.
The mark [9] stands for this setting: read-out: EC50 for channel activation, 125 µM Ca2+ + 2.5 µM PIP2.
Setting [10] is: full-length nvTRPM2, 125 µM Ca2+.
Where [11] appears, read: read-out: EC50 for nvTRPM2 channel activation, full-length nvTRPM2, 125 µM cytosolic Ca2+, Hill fit, −20 mV.
Where [12] appears, read: read-out: EC50 for channel activation by Ca2+ (fractional Po), saturating ADPRP (1,000 µM) + 2.5 µM PIP2.
Where [13] appears, read: saturating ADPRP (1,000 µM) + 2.5 µM PIP2.
Setting [14] is: read-out: EC50 for channel activation by Ca2+ (fractional Po), saturating ADPRP (100 µM) + 2.5 µM PIP2.
The mark [15] stands for this setting: saturating ADPRP (100 µM) + 2.5 µM PIP2.
[16] abbreviates: 2.5 and 25 µM PIP2, 125 µM Ca2+ + 3.2 mM ADPR.
Where [17] appears, read: 25 µM PIP2, 125 µM Ca2+ + 3.2 mM ADPR.

Structures are written as SMILES. Values joined by “and” are separate entries in the source; they are usually repeats but may differ in a detail not shown here. Equal entries are not always repeated. Where two headings read alike, the source gives them in different places.

Sequence of T179A nvTRPM2 (A7T1N0 whole entry T179A): as the sequence (A7T1N0 whole entry R271A) above, with T179A, A271R counted along it
Sequence of T307A nvTRPM2 (A7T1N0 whole entry T307A): as the sequence (A7T1N0 whole entry R271A) above, with A271R, T307A counted along it
Sequence of Y264A nvTRPM2 (A7T1N0 whole entry Y264A): as the sequence (A7T1N0 whole entry R271A) above, with Y264A, A271R counted along it
Sequence of nvTRPM2 (A7T1N0 whole entry): as the sequence (A7T1N0 whole entry R271A) above, with A271R counted along it

As to `Nc1ncnc2c1ncn2[C@@H]1O[C@H](COP(=O)(O)OP(=O)(O)OC[C@H]2O[C@@H](O)C(O)[C@H]2O)C(O)[C@@H]1OP(=O)(O)O` (some centres unmarked) [ADPRP, ADPR-2′-phosphate], the “Hill coefficient nH for channel activation” value was determined as 1.6 ± 0.2 in test [1] (125 µM Ca2+ + 2.5 µM PIP2); 1.8 ± 0.3 in test [2] (125 µM Ca2+ + 2.5 µM PIP2); 1.8 ± 0.2 in test [3] (WT nvTRPM2, 125 µM Ca2+ + 2.5 µM PIP2); 2.1 ± 0.4 in test [3] (setting [10]); 1.7 ± 0.2 in test [4] (125 µM Ca2+ + 2.5 µM PIP2); 2.1 ± 0.2 in test [5] (125 µM Ca2+ + 2.5 µM PIP2). Besides, the “Hill coefficient nH for channel activation” value in test [6] (125 µM Ca2+ + 2.5 µM PIP2) is reported as 1.8 ± 0.1; in test [8] (125 µM Ca2+ + 2.5 µM PIP2) it was 1.4 ± 0.2. Also, the EC50 in test [1] (setting [9]) is 12000 ± 1000 nM; in test [3] (read-out: EC50 for channel activation, WT nvTRPM2, 125 µM Ca2+ + 2.5 µM PIP2) it was 310 ± 20 nM; in test [3] (setting [11]) it was roughly 400 nM; in test [4] (setting [9]) it was 89 ± 5 nM; in test [6] (setting [9]), 1500 ± 100 nM; in test [7] (read-out: EC50 for hsTRPM2, activation, inside-out patches, saturating cytosolic Ca2+, ref Tóth et al., 2015), 13000 ± 1000 nM. Moreover, the EC50 in test [8] (setting [9]) amounted to 3900 ± 500 nM. In addition, the “Mode of action on nvTRPM2” value in test [3] (125 µM Ca2+) is given as “full agonist”. Besides, in test [3] (EC50 ratio versus ADPR), the “Potency for activating WT nvTRPM2 relative to ADPR” value was “approximately fivefold”. Moreover, the Maximal fractional activation in test [3] (125 µM Ca2+) was 1.06 ± 0.03. The “Mode of action on hsTRPM2” value in test [7] (ref Tóth et al., 2015) is “low-affinity partial agonist”.
With `O=P(O)(OC[C@H]1OC(O)[C@H](O)[C@@H]1O)OP(=O)(O)OC[C@H]1O[C@@H](n2cnc3c2ncn2ccnc32)[C@H](O)[C@@H]1O` (some centres unmarked) [ε-ADPR, 1,N^6-ethenoadenosine-5′-O-diphosphoribose], in test [3] (125 µM Ca2+), the “Mode of action on nvTRPM2” value was “low-affinity antagonist”. Moreover, the “Current induced by the analogue alone” value in test [3] (200 µM, 125 µM cytosolic Ca2+) is given as “only tiny currents”. The “Reduction of currents elicited by 3.2 µM ADPR” value in test [3] (coapplication of 200 µM ε-ADPR, 125 µM Ca2+) is given as roughly 25%. Besides, the “Mode of action on hsTRPM2” value in test [7] (ref Iordanov et al., 2016) is “low-affinity antagonist”.
For the compound `Nc1ncnc2c1ncn2[C@H]1C[C@H](O)[C@@H](COP(=O)(O)OP(=O)(O)OC[C@H]2OC(O)[C@H](O)[C@@H]2O)O1` (some centres unmarked) [dADPR, 2′-deoxy-ADPR], in test [3] (125 µM Ca2+), the “Mode of action on nvTRPM2” value was “similarly efficacious and potent as ADPR”; the Maximal fractional activation came out at 1.1 ± 0.04. In test [3] (setting [10]), the “Hill coefficient nH for channel activation” value was determined as 1.3 ± 0.2. In test [3] (setting [11]), the half-maximal effective concentration (EC50) is ~2700 nM and 2700 nM. The “Mode of action on hsTRPM2” value in test [7] (larger maximal whole-cell currents compared with ADPR, ref Fliegert et al., 2017) is “super-agonist”.
Take `[Ca+2]` [Ca^2+]: the EC50 in test [1] (setting [12]) is 930 ± 50 nM; in test [2] (setting [12]) it was 2000 ± 100 nM; in test [4] (read-out: EC50 for channel activation by Ca2+ (fractional Po), saturating ADPRP (10 µM) + 2.5 µM PIP2) it was 1680 ± 40 nM; in test [5] (setting [12]) it was 1100 ± 40 nM; in test [6] (setting [14]) it was 640 ± 20 nM; in test [8] (setting [14]), 1800 ± 100 nM. Besides, the “Hill coefficient nH for activation by Ca2+” value in test [1] (setting [13]) was 1.9 ± 0.2; in test [2] (setting [13]), 1.8 ± 0.1; in test [3] (WT, saturating ADPRP (10 µM) + 2.5 µM PIP2), 1.7 ± 0.2; in test [4] (saturating ADPRP (10 µM) + 2.5 µM PIP2) it was 3.0 ± 0.2; in test [5] (setting [13]) it was 2.0 ± 0.2; in test [6] (setting [15]) it was 2.3 ± 0.2. Moreover, the “Hill coefficient nH for activation by Ca2+” value in test [8] (setting [15]) is given as 2.3 ± 0.1.
As to `CCCCCCCC(=O)OC[C@H](COP(=O)(O)O[C@@H]1[C@H](O)[C@H](O)[C@@H](OP(=O)(O)O)[C@H](OP(=O)(O)O)[C@H]1O)OC(=O)CCCCCCC` [PIP2, phosphatydyl-inositol-4-5-bisphosphate], the “Stimulation of macroscopic current by exogenous PIP2” value is given as “small fractional stimulation” in test [1] (setting [16]); roughly 40 fold in test [2] (setting [17]); “only marginal additional stimulation” in test [3] (WT, 125 µM Ca2+ + 3.2 mM ADPR); “approximately twofold” in test [4] (setting [17]); “small fractional stimulation” in test [6] (setting [16]); roughly 80 fold in test [8] (setting [17]).

The term EC50 denotes the concentration that produces a half-maximal response.
